Laboratory results published in US7205304B2, “Sulfonyl-Derivatives as novel inhibitors of histone deacetylase” (Janssen Pharmaceutica N.V., priority 2002, dated 2007).
Values after ≈ are worked out from the molar mass of the structure shown.

What was measured:
[1] = system: A2780 ovarian carcinoma cells; assay: Antiproliferative activity on A2780 cells (MTT); type: cell-based, human; details: Homo sapiens, A2780, 96 h, four days of incubation, read-out: Cellular activity pIC50 (converted)
Experimental: Cellular activity of the compounds of formula (I) was determined on A2780 tumour cells using a colorimetric assay for cell toxicity or survival (Mosmann Tim, Journal of Immunological Methods 65: 55–63, 1983)(see example C.2).
All compounds tested were dissolved in DMSO and further dilutions were made in culture medium. Final DMSO concentrations never exceeded 0.1% (v/v) in cell proliferation assays. Controls contained A2780 cells and DMSO without compound and blanks contained DMSO but no cells. MTT was dissolved at 5 mg/ml in PBS. A glycine buffer comprised of 0.1 M glycine and 0.1 M NaCl buffered to pH 10.5 with NaOH (1 N) was prepared (all reagents were from Merck).
The human A2780 ovarian carcinoma cells (a kind gift from Dr. T. C. Hamilton [Fox Chase Cancer Centre, Pennsylvania, USA]) were cultured in RPMI 1640 medium supplemented with 2 mM L-glutamine, 50 μg/ml gentamicin and 10% fetal calf serum. Cells were routinely kept as monolayer cultures at 37° C. in a humidified 5% CO2 atmosphere. Cells were passaged once a week using a trypsin/EDTA solution at a split ratio of 1:40. All media and supplements were obtained from Life Technologies. Cells were free of mycoplasma contamination as determined using the Gen-Probe Mycoplasma Tissue Culture kit (supplier: BioMérieux).
Cells were seeded in NUNC™ 96-well culture plates (Supplier: Life Technologies) and allowed to adhere to the plastic overnight. Densities used for plating were 1500 cells per well in a total volume of 200 μl medium. After cell adhesion to the plates, medium was changed and drugs and/or solvents were added to a final volume of 200 μl. Following four days of incubation, medium was replaced by 200 μl fresh medium and cell density and viability was assessed using an MTT-based assay. To each well, 25 μl MTT solution was added and the cells were further incubated for 2 hours at 37° C. The medium was then carefully aspirated and the blue MTT-formazan product was solubilized by addition of 25 μl glycine buffer followed by 100 μl of DMSO. […] Within an experiment, the results for each experimental condition are the mean of 3 replicate wells. For initial screening purposes, compounds were tested at a single fixed concentration of 10^−6 M. For active compounds, the experiments were repeated to establish full concentration-response curves. For each experiment, controls (containing no drug) and a blank incubation (containing no cells or drugs) were run in parallel. The blank value was subtracted from all control and sample values. For each sample, the mean value for cell growth (in absorbance units) was expressed as a percentage of the mean value for cell growth of the control. […] Herein the effects of test compounds are expressed as pIC50 (the negative log value of the IC50-value).

[2] = Kinetic solubility in aqueous media (nephelometry); type: physicochemical; details: phosphate citrate buffer, pH 7.4, aqueous buffer, kinetic from dmso stock, phosphate citrate buffer pH 7.4, turbidity of three dilution steps; read-out: Solubility Score
Experimental: Kinetic solubility in aqueous media measures the ability of a compound to stay in aqueous solution upon dilution (see example C.3).
DMSO-stock solutions are diluted with a single aqueous buffer solvent in 3 consecutive steps. For every dilution turbidity is measured with a nephelometer.
In the first dilution step, 10 μl of a concentrated stock-solution of the active compound, solubilized in DMSO (5 mM), was added to 100 μl phosphate citrate buffer pH 7.4 and mixed. In the second dilution step, an aliquot (20 μl) of the first dilution step was further dispensed in 100 μl phosphate citrate buffer pH 7.4 and mixed. Finally, in the third dilution step, a sample (20 μl) of the second dilution step was further diluted in 100 μl phosphate citrate buffer pH 7.4 and mixed. All dilutions were performed in 96-well plates. Immediately after the last dilution step the turbidity of the three consecutive dilution steps were measured with a nephelometer. Dilution was done in triplicate for each compound to exclude occasional errors. Based on the turbidity measurements a ranking is performed into 3 classes. Compounds with high solubility obtained a score of 3 and for this compounds the first dilution is clear. Compounds with medium solubility obtained a score of 2. For these compounds the first dilution is unclear and the second dilution is clear. […] The solubility of 112 compounds was measured.

[3] = biological target: histone deacetylase (HeLa nuclear extracts); assay: In vitro assay for inhibition of histone deacetylase; type: biochemical; details: [3H]acetylated histone H4 peptide substrate
Experimental: The in vitro assay for inhibition of histone deacetylase (see example C.1) measures the inhibition of HDAC enzymatic activity obtained with the compounds of formula (I).
HeLa nuclear extracts (supplier: Biomol) were incubated at 60 μg/ml with 2×10^−8 M of radiolabeled peptide substrate. As a substrate for measuring HDAC activity a synthetic peptide, i.e. the amino acids 14–21 of histone H4, was used. The substrate is biotinylated at the NH2-terminal part with a 6-aminohexanoic acid spacer, and is protected at the COOH-terminal part by an amide group and specifically [^3H]acetylated at lysine 16. The substrate, biotin-(6-aminohexanoic)Gly-Ala-([^3H]-acetyl-Lys-Arg-His-Arg-Lys-Val-NH2), was added in a buffer containing 25 mM Hepes, 1 M sucrose, 0.1 mg/ml BSA and 0.01% Triton X-100 at pH 7.4. After 30 min the deacetylation reaction was terminated by the addition of HCl and acetic acid. (final concentration 0.035 mM and 3.8 mM respectively). After stopping the reaction, the free ^3H-acetate was extracted with ethylacetate. After mixing and centrifugation, the radioactivity in an aliquot of the upper (organic) phase was counted in a β-counter.
For each experiment, controls (containing HeLa nuclear extract and DMSO without compound), a blank incubation (containing DMSO but no HeLa nuclear extract or compound) and samples (containing compound dissolved in DMSO and HeLa nuclear extract) were run in parallel. In first instance, compounds were tested at a concentration of 10^−5M. […] In each test the blank value was substracted from both the control and the sample values. The control sample represented 100% of substrate deactylation. For each sample the radioactivity was expressed as a percentage of the mean value of the controls. […] Herein the effects of test compounds are expressed as pIC50 (the negative log value of the IC50-value).

O=C(NO)c1ccc(N2CCN(S(=O)(=O)c3ccc(Br)cc3)CC2)cc1 [Compound 78]
IC50 [1]: 1250 nM | solubility [2]: 75.8 to 454 µM (≈ 33.4 to 200 µg/mL) | Enzyme activity pIC50 [3]: 6.306

O=C(NO)c1cnc(N2CCN(S(=O)(=O)c3ccc(-c4ccccc4Cl)cc3)CC2)nc1 [Compound 108]
IC50 [1]: 209 nM | solubility [2]: < 75.8 µM | Enzyme activity pIC50 [3]: 8.117

O=C(NO)c1cnc(N2CCN(S(=O)(=O)c3ccc(-c4cc(Cl)cc(Cl)c4)cc3)CC2)nc1 [Compound 176]
IC50 [1]: 828 nM | solubility [2]: 75.8 to 454 µM (≈ 38.5 to 231 µg/mL) | Enzyme activity pIC50 [3]: 6.513

COC1CCN(Cc2sccc2-c2ccc(S(=O)(=O)N3CCN(c4ncc(C(=O)NO)cn4)CC3)cc2)CC1 [Compound 149]
IC50 [1]: 144 nM | solubility [2]: 75.8 to 454 µM (≈ 43.4 to 260 µg/mL) | Enzyme activity pIC50 [3]: 8.175

O=C(NO)c1ccc(N2CCN(S(=O)(=O)c3ccccc3C(F)(F)F)CC2)cc1 [Compound 74]
IC50 [1]: 2610 nM | solubility [2]: 75.8 to 454 µM (≈ 32.6 to 195 µg/mL) | Enzyme activity pIC50 [3]: 5.841

O=C(NO)c1cnc(N2CCN(S(=O)(=O)c3ccc(-c4ccccc4CN(CCO)CCO)cc3)CC2)nc1 [Compound 160]
IC50 [1]: 278 nM | solubility [2]: 75.8 to 454 µM (≈ 42.2 to 253 µg/mL) | Enzyme activity pIC50 [3]: 8.272

CN(CCO)Cc1sccc1-c1ccc(S(=O)(=O)N2CCN(c3ncc(C(=O)NO)cn3)CC2)cc1 [Compound 151]
IC50 [1]: 137 nM | solubility [2]: > 454 µM | Enzyme activity pIC50 [3]: 8.152

O=C(NO)c1cnc(N2CCN(S(=O)(=O)c3ccc(-c4cccc(C(F)(F)F)c4)cc3)CC2)nc1 [Compound 102]
IC50 [1]: 353 nM | solubility [2]: 75.8 to 454 µM (≈ 38.5 to 231 µg/mL) | Enzyme activity pIC50 [3]: 7.162

CN(C)S(=O)(=O)N1CCN(Cc2sccc2-c2ccc(S(=O)(=O)N3CCN(c4ncc(C(=O)NO)cn4)CC3)cc2)CC1 [Compound 147]
IC50 [1]: 693 nM | solubility [2]: < 75.8 µM | Enzyme activity pIC50 [3]: 6.765

O=C(NO)c1ccc(N2CCN(S(=O)(=O)c3cc(S(=O)(=O)c4ccccc4)cs3)CC2)cc1 [Compound 69]
IC50 [1]: > 10000 nM | solubility [2]: > 454 µM | Enzyme activity pIC50 [3]: 5.978

CS(=O)(=O)c1ccccc1S(=O)(=O)N1CCN(c2ccc(C(=O)NO)cc2)CC1 [Compound 60]
IC50 [1]: 4530 nM | solubility [2]: > 454 µM | Enzyme activity pIC50 [3]: 6.247

O=C(NO)c1cnc(N2CCN(S(=O)(=O)c3ccc(-c4ccccc4C(F)(F)F)cc3)CC2)nc1 [Compound 110]
IC50 [1]: 445 nM | solubility [2]: 75.8 to 454 µM (≈ 38.5 to 231 µg/mL) | Enzyme activity pIC50 [3]: 7.713

CN(C)c1cccc(-c2ccc(S(=O)(=O)N3CCN(c4ncc(C(=O)NO)cn4)CC3)cc2)c1 [Compound 135]
IC50 [1]: 287 nM | solubility [2]: > 454 µM | Enzyme activity pIC50 [3]: 7.631

Cc1noc(C)c1-c1ccc(S(=O)(=O)N2CCN(c3ncc(C(=O)NO)cn3)CC2)cc1 [Compound 112]
IC50 [1]: 330 nM | solubility [2]: > 454 µM | Enzyme activity pIC50 [3]: 7.54

Cc1noc(C)c1S(=O)(=O)N1CCN(c2ccc(C(=O)NO)cc2)CC1 [Compound 64]
IC50 [1]: 8910 nM | solubility [2]: > 454 µM | Enzyme activity pIC50 [3]: 5.753

Cc1ccc(-c2ccc(S(=O)(=O)N3CCN(c4ncc(C(=O)NO)cn4)CC3)cc2)cc1 [Compound 179]
IC50 [1]: 119 nM | solubility [2]: 75.8 to 454 µM (≈ 34.4 to 206 µg/mL) | Enzyme activity pIC50 [3]: 7.146

CN(C)c1ccc2cc(S(=O)(=O)N3CCN(c4ncc(C(=O)NO)cn4)CC3)ccc2c1 [Compound 181]
IC50 [1]: 119 nM | solubility [2]: > 454 µM | Enzyme activity pIC50 [3]: 7.098

O=C(NO)c1cnc(N2CCN(S(=O)(=O)c3ccc(-c4ccccc4)cc3)CC2)nc1 [Compound 128]
IC50 [1]: 81.3 nM | solubility [2]: 75.8 to 454 µM (≈ 33.3 to 200 µg/mL) | Enzyme activity pIC50 [3]: 8.078

O=C(NO)c1ccc(N2CCN(S(=O)(=O)c3ccc(Cl)s3)CC2)cc1 [Compound 66]
IC50 [1]: 1330 nM | solubility [2]: < 75.8 µM | Enzyme activity pIC50 [3]: 6.197

O=C(NO)c1cnc(N2CCN(S(=O)(=O)c3ccc(-c4ccsc4CN4CCN(CCOCCO)CC4)cc3)CC2)nc1 [Compound 150]
IC50 [1]: 164 nM | solubility [2]: 75.8 to 454 µM (≈ 47.9 to 287 µg/mL) | Enzyme activity pIC50 [3]: 8.011

CN(C)Cc1sccc1-c1ccc(S(=O)(=O)N2CCN(c3ncc(C(=O)NO)cn3)CC2)cc1 [Compound 124]
IC50 [1]: 47.9 nM | solubility [2]: > 454 µM | Enzyme activity pIC50 [3]: 8.358

O=C(NO)c1cnc(N2CCN(S(=O)(=O)c3ccc(/C=C/c4ccccc4)cc3)CC2)nc1 [Compound 109]
IC50 [1]: 258 nM | solubility [2]: 75.8 to 454 µM (≈ 35.3 to 212 µg/mL) | Enzyme activity pIC50 [3]: 7.176

O=C(NO)c1cnc(N2CCN(S(=O)(=O)c3ccc(-c4ccoc4)cc3)CC2)nc1 [Compound 100]
IC50 [1]: 57.9 nM | solubility [2]: 75.8 to 454 µM (≈ 32.6 to 195 µg/mL) | Enzyme activity pIC50 [3]: 8.171

O=C(NO)c1ccc(N2CCN(S(=O)(=O)c3cccc4cccnc34)CC2)cc1 [Compound 71]
IC50 [1]: 2470 nM | solubility [2]: > 454 µM | Enzyme activity pIC50 [3]: 6.449

COc1ccc(-c2ccc(S(=O)(=O)N3CCN(c4ncc(C(=O)NO)cn4)CC3)cc2)c(OC)c1OC [Compound 134]
IC50 [1]: 316 nM | solubility [2]: 75.8 to 454 µM (≈ 40.1 to 241 µg/mL) | Enzyme activity pIC50 [3]: 7.662

O=C(NO)c1cnc(N2CCN(S(=O)(=O)c3ccc(-c4ccccc4CN4CCOCC4)cc3)CC2)nc1 [Compound 158]
IC50 [1]: 446 nM | solubility [2]: 75.8 to 454 µM (≈ 40.8 to 245 µg/mL) | Enzyme activity pIC50 [3]: 7.784

CN(C)CC1CN(c2ncc(C(=O)NO)cn2)CCN1S(=O)(=O)c1ccc(-c2ccccc2)cc1 (stereo not drawn) [Compound 143]
IC50 [1]: 1320 nM | solubility [2]: > 454 µM | Enzyme activity pIC50 [3]: 7.002

O=C(NO)c1cnc(N2CCN(S(=O)(=O)c3c(Cl)nc4sccn34)CC2)nc1 [Compound 95]
IC50 [1]: 1100 nM | solubility [2]: > 454 µM | Enzyme activity pIC50 [3]: 7.363

O=C(NO)c1ccc(N2CCN(S(=O)(=O)c3ccc(-c4ccccn4)s3)CC2)cc1 [Compound 68]
IC50 [1]: 1230 nM | solubility [2]: < 75.8 µM | Enzyme activity pIC50 [3]: 6.908

Nc1ccccc1NC(=O)c1ccc(N2CCN(S(=O)(=O)c3ccc4ccccc4c3)CC2)cc1 [Compound 17]
IC50 [1]: 764 nM | solubility [2]: < 75.8 µM | Enzyme activity pIC50 [3]: <5

O=C(NO)c1cnc(N2CCN(S(=O)(=O)c3ccc(-c4ccc(C(F)(F)F)cc4)cc3)CC2)nc1 [Compound 185]
IC50 [1]: 160 nM | solubility [2]: < 75.8 µM | Enzyme activity pIC50 [3]: 6.417
